In assay [1] the test system is ErbB2 and ESX promoter hypersensitive loci. In words: DNase I hypersensitivity analysis of ErbB2 and ESX promoters. It counts as cell-based, human. The conditions noted are these: SKBR3 cells, 24 hour, 0.4 μM TSA. The protocol:
The conserved and singular DNase I hypersensitivity sites found in the proximal ErbB2 and ESX promoters (12,15) were assayed as before (12). Briefly, following culture treatment of cells, nuclei isolated by mild detergent lysis in a buffer containing 10 mM Hepes pH 7.9, 1.5 mM MgCl2, 10 mM KCl, 0.4% NP-40, 10% glycerol and 1 mM DTT. Partial DNase I digestions were carried out by varying DNase I treatment times (0-15 minutes at 37( ) at a fixed DNase I concentrations (0.5-1.0 units per 10^6 nuclei). After purifying and restricting the DNA, it was electrophoresed through 0.7% agarose gels and blotted onto nylon membranes, UV-crosslinked and hybridized with randomly ^32P-labelled ErbB2 and ESX promoter probes, as similarly performed for routine Southern blotting. For Northern blotting, total (treated vs. control) cell RNA (10 μg/sample lane) was isolated using TRIzol (Invitrogen) according to manufacturer's specifications, electrophoresed into 1% agarose-formaldehyde gels and transferred onto membranes that were then hybridized with ^32P-labelled ErbB2 and ESX cDNA probes. For transcriptional run-off assays cell nuclei were first isolated from treated and control cells as described for the DNase I studies. […]

In a further assay the test system is ErbB2 promoter. In words: Genomically integrated ErbB2 promoter-luciferase reporter screen in MCF/R06pGL-9 cells. It counts as cell-based, human. The note with it: 24 h treatment. The protocol:
Reporter activity was assayed as follows: From T-150 or T-75 culture flasks, about […] cells/well were plated into a 96 well plate format for high-throughput screening. 24 hours post plating a test agent e.g. a drug from a combinatorial library, was added to the wells at various concentrations. Certain wells were used as controls (e.g. PBS or DMSO vehicle only). Replicate wells ([…] per drug concentration) were run. 24 hours after addition of the test agent the cells were lysed, a luciferase reagent was added and activity in each well was read using a high-throughput screening plate reader (labsystems Fluoroskan). Parallel plates were run for cell viability using an MTT assay (Sigma).
A luciferase reporter plasmid (designated RO6pGL-luc) was constructed by inserting the ˜500 bp SmaI-SmaI fragment of the human ErbB2 proximal promoter (12) into the pGL3Basic plasmid driving a luciferase reporter gene, as has been described (10). R06pGL-luc and a plasmid expressing neomycin phosphotransferase were co-transfected into the MCF-7 cells (ATCC) using Effectene (Qiagen). Cells were selected for stable expression of luciferase and neomycin (G418)-resistance. […] The reaction was quantified by absorbance at 570 nm measured with a microplate reader (Molecular Devices) and the mean (±SD) optical density recorded after normalization by the vehicle treated controls. […]
For orientation: In a reporter assay the amount or activity of a reporter protein is the signal.

Entries after “also recorded” stand apart in the source; their conditions may differ.

In the case of `CC(/C=C/C(=O)NO)=C\[C@@H](C)C(=O)c1ccc(N(C)C)cc1` [TSA, trichostatin A], the “DNase I hypersensitivity of ErbB2 and ESX promoter loci” value in assay [1] is on record as “lack of any TSA treatment effects on the hypersensitive loci”. Moreover, the “ErbB2 promoter-reporter (luciferase) activity” value in the assay on ErbB2 promoter was “significantly represses; also recorded: significant reduction of luciferase activity”.

The values are drawn from patent US20120264159A1, “SCREENING SYSTEM FOR MODULATORS OF HER2 MEDIATED TRANSCRIPTION AND HER2 MODULATORS IDENTIFED THEREBY” (BUCK INSTITUTE FOR AGE RESEARCH, priority 2001, published 2012).
